The source of these data is patent US11117856B2, “Polyamine compounds targeting the efflux pumps of multi-drug resistant bacterial pathogens and methods of using the same” (UNIVERSITY OF SOUTH FLORIDA, priority 2016, dated 2021).

Series [1] concerns P. aeruginosa. The series can be described thus: Bactericidal assessment with tetracycline. The class given is cell-based. The procedure:
(§1) Lead agents were screened for bactericidal activity as described previously (Van Horn, et al. J. Med. Chem. 2014, 57, 3075-3093; […], et al. J. Med. Chem. 2015, 58, 3340-3355), with the following modifications. […] Biofilm experiments were performed similar to those described previously ([…], et al. J. Med. Chem. 2015, 58, 3340-3355; von Salm, et al. Org. Lett. 2016, 18, 2596-2599), with the following modifications.

The subject of series [2] is Hek293T cells. The series can be described thus: MTT cytotoxicity assay. The class given is cell-based, human. The note with it: 25 μg mL^−1, 48 hours. The protocol: To assess toxicity of polyamine compounds we used HepG2 human liver carcinoma cells and Hek293T human embryonic kidney epithelial cells. […] J. Med. Chem. 2015, 58, 3340-3355). […] Cells were then incubated for 48 hours at 37° C. with 5% CO2. Following this, viability was assessed by the addition of MTT and measuring the OD570 in a Biotek plate reader. Percent recovery was determined compared to no drug controls.
On the technique in general: Formazan colour is commonly taken as a measure of viable cells.

The subject of series [3] is P. aeruginosa. The series can be described thus: Checkerboard potentiation assay with chloramphenicol. The class given is cell-based. The note with it: increasing EPI concentration, dose response. The protocol:
(§2) The bacterial strains used in this study are multi-drug resistant clinical isolates that have previously been described (TABLE 2) (Fleeman, et al. J. Med. Chem. 2015, 58, 3340-3355). Organisms were grown in tryptic soy broth (TSB) for overnight cultures, and cation adjusted Mueller Hinton broth (CA-MH II) was used for experimental procedures. All incubations were performed at 37° C.
Scaffold ranking library samples and individual polyamines were screened using checkerboard inhibitory assays to assess the potentiation of tetracycline and chloramphenicol. The test utilized a 96-well plate microtiter assay where the concentration of the scaffold or individual polyamine was decreased from 25 μg mL^−1 to 0.8 μg mL^−1 (average molarity of 65 μM to 4 μM) along the rows, and the concentration of tetracycline or chloramphenicol was increased from 0.4 μM to 100 μM across the columns. Plates were incubated statically at 37° C. for 20 hours, and the optical density (OD600) was determined using a Synergy 2 plate reader (Biotek). […]
Potentiation was quantified using a mathematical model developed by our group to assess the ability of library samples and individual compounds to effectively enhance the activity of tetracycline or chloramphenicol (Hoel, D. G. Statistical Aspects of Chemical Mixtures. Methods for assessing the effects of mixtures of chemicals. 1987, New York). […]

Series [4] relates to P. aeruginosa biofilm. The series can be described thus: Pre-formed biofilm viability assessment with tetracycline.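 For biofilm recovery, combination treatment: percent recovery versus no treatment controls after 20 Hours.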 It counts as cell-based. The protocol: as §1
Series [5] relates to tetracycline resistant strain of P. aeruginosa. Put plainly: Checkerboard potentiation assay with tetracycline. The class given is cell-based. The protocol: as §2
Scaffold ranking library samples and individual polyamines were screened using checkerboard inhibitory assays to assess the potentiation of tetracycline and chloramphenicol. The test utilized a 96-well plate microtiter assay where the concentration of the scaffold or individual polyamine was decreased from 25 μg mL^−1 to 0.8 μg mL^−1 (average molarity of 65 μM to 4 μM) along the rows, and the concentration of tetracycline or chloramphenicol was increased from 0.4 μM to 100 μM across the columns. Plates were incubated statically at 37° C. for 20 hours, and the optical density (OD600) was determined using a Synergy 2 plate reader (Biotek). Potentiation modeling (detailed below) was performed to determine fold change in the 50% and 90% effective concentration of tetracycline or chloramphenicol.
Potentiation was quantified using a mathematical model developed by our group to assess the ability of library samples and individual compounds to effectively enhance the activity of tetracycline or chloramphenicol (Hoel, D. G. Statistical Aspects of Chemical Mixtures. Methods for assessing the effects of mixtures of chemicals. 1987, New York). […] In this way, only libraries and compounds that potentiated tetracycline or chloramphenicol activity were pursued. The model is based on the following equation for modeling the percentage activity of a mixture of two agents with independent action (Hoel, et al. Statistical Aspects of Chemical Mixtures. Methods for assessing the effects of mixtures of chemicals. 1987, New York): %Antibiotic & Comp(x1,x2)=%Antibiotic(x1)+%Comp(x2)−%Antibiotic(x1)·%Comp(x2)
Here, x1 and x2 are the concentrations of antibiotic (tetracycline or chloramphenicol) and library/compound (Comp) tested, respectively. This equation can be rearranged to model the effective percent activity (EC) of the antibiotic alone, after accounting for compound activity:
[formula] Thus, the model-adjusted checkerboards show the antibiotic activity post-potentiation, and from that one can determine the true change in MIC.

[6] abbreviates: 50 μM tetracycline + MPC of EPI.

Where only a bound is given, the exact number is not on record here.

In the case of `CNCCCC[C@H](CN)NC[C@H](Cc1ccccc1)NCCc1ccccc1` [TPI 266, (R)—N^6-methyl-N^2—((S)-2-(phenethylamino)-3-phenylpropyl)hexane-1,2,6-triamine], the “percent recovery, combination treatment” value in series [1] (12 μM tetracycline + MPC of EPI) came to 0.76%; in series [1] (setting [6]), 0.01%. The “percent recovery of Hek293T cells compared to solvent only controls” value in series [2] was found to be 72%. In addition, the “potentiation of chloramphenicol EC90” value in series [3] is on record as “highest potentiation values”. Also, the “biofilm recovery, combination treatment” value in series [4] (25 μM tetracycline + MPC of EPI) was determined as 1%; in series [4] (setting [6]) it was 0.6%. In addition, the “biofilm cells recovered, EPI alone” value in series [4] (25 μg mL^−1 (MPC), no tetracycline) worked out at 92%. For the same compound, the “FP* (Fold Potentiation, EC50)” value in series [5] (EC50 tetracycline with no TPI/with TPI, 25 μg mL^−1 TPI) amounted to 6.8 fold. The “FP^# (Fold Potentiation, EC90)” value in series [5] (EC90 tetracycline with no TPI/with TPI, 25 μg mL^−1 TPI) was found to be 5.8 fold. The “FP*^c (Fold Potentiation, EC50)” value in series [5] (Table 1, tetracycline EC50) came to 6.8 fold. In addition, in series [5] (Table 1, tetracycline EC90), the “FP^#c (Fold Potentiation, EC90)” value came to 5.8 fold. Further, the “TPI (inhibitory concentration of the polyamines alone to produce EC values)” value in series [5] (polyamine alone, no tetracycline, 25 μg mL^−1 highest concentration tested) was greater than 25 µg/mL.
